Assay: xn = mol fraction of the nth substance listed
Settings: 298.15 K, 101 kPa, Liquid; for speed of sound: Linear variable-path acoustic interferometer; for mass density: Vibrating tube method

Cc1ccc(Cl)cc1 [4-chlorotoluene] + C1CCOC1
Settings	mass density [kg/m3]	speed of sound [m/s]
x2 = 0	1064.21	1296
x2 = 0.0653	1054.92	1305
x2 = 0.168	1040.16	1308
x2 = 0.3251	1015.77	1308
x2 = 0.4558	994.13	1304
x2 = 0.5489	977.7	1301
x2 = 0.6335	962.01	1296
x2 = 0.7021	948.73	1293
x2 = 0.7609	936.9	1288
x2 = 0.8226	923.96	1284
x2 = 0.906	905.08	1280
x2 = 0.941	896.99	1277

Cc1cccc([N+](=O)[O-])c1 [3-nitrotoluene] + C1CCOC1
Settings	mass density [kg/m3]	speed of sound [m/s]
x2 = 0	1149.67	2100
x2 = 0.0914	1132.22	2093
x2 = 0.1522	1120.11	2029
x2 = 0.2026	1109.64	1969
x2 = 0.3146	1085.13	1847
x2 = 0.4209	1060.02	1719
x2 = 0.5476	1027.61	1588
x2 = 0.6024	1012.66	1542
x2 = 0.7519	968.47	1438
x2 = 0.8415	939.33	1380
x2 = 0.9324	907.47	1321

Cc1ccccc1[N+](=O)[O-] [2-nitrotoluene] + C1CCOC1
Settings	mass density [kg/m3]	speed of sound [m/s]
x2 = 0	1155.24	2112
x2 = 0.1021	1135.24	2120
x2 = 0.2146	1111.7	2034
x2 = 0.3019	1092.19	1939
x2 = 0.4211	1063.58	1791
x2 = 0.4509	1056.04	1754
x2 = 0.521	1037.67	1677
x2 = 0.6045	1014.59	1593
x2 = 0.7211	979.81	1495
x2 = 0.8014	953.93	1433
x2 = 0.9324	907.94	1325

Clc1ccccc1Cl [1,2-dichlorobenzene] + C1CCOC1
Settings	mass density [kg/m3]	speed of sound [m/s]
x2 = 0	1300.35	1269
x2 = 0.0327	1288.55	1274
x2 = 0.155	1244.23	1290
x2 = 0.3046	1189.35	1305
x2 = 0.4457	1135.03	1307
x2 = 0.5709	1084.3	1304
x2 = 0.6161	1065.67	1299
x2 = 0.6885	1034.31	1295
x2 = 0.7973	984.99	1283
x2 = 0.8425	963.65	1278
x2 = 0.8852	942.63	1274
x2 = 0.9451	911.72	1272

C1CCOC1 [tetrahydrofuran] + Cc1cccc([N+](=O)[O-])c1
x1 = 1
Settings	mass density [kg/m3]	speed of sound [m/s]
–	882.09	1270

Cc1cccc(Cl)c1 [3-chlorotoluene] + C1CCOC1
Settings	mass density [kg/m3]	speed of sound [m/s]
x2 = 0	1066.01	1279
x2 = 0.0662	1055.82	1293
x2 = 0.1944	1036.15	1313
x2 = 0.2787	1022.98	1319
x2 = 0.3891	1004.96	1324
x2 = 0.5228	981.71	1325
x2 = 0.6399	960.03	1320
x2 = 0.7368	941.06	1313
x2 = 0.7972	928.35	1307
x2 = 0.8601	914.63	1300
x2 = 0.9208	900.75	1290
x2 = 0.945	895.28	1287
x2 = 0.9739	888.4	1282

C1CCOC1 [tetrahydrofuran] + Cc1cccc(Cl)c1
x1 = 1
Settings	mass density [kg/m3]	speed of sound [m/s]
–	882.09	1270

C1CCOC1 [tetrahydrofuran] + Cc1ccc(Cl)cc1
x1 = 1
Settings	mass density [kg/m3]	speed of sound [m/s]
–	882.09	1270

C1CCOC1 [tetrahydrofuran] + Clc1cccc(Cl)c1
x1 = 1
Settings	mass density [kg/m3]	speed of sound [m/s]
–	882.09	1270

C1CCOC1 [tetrahydrofuran] + Cc1ccccc1[N+](=O)[O-]
x1 = 1
Settings	mass density [kg/m3]	speed of sound [m/s]
–	882.09	1270

C1CCOC1 [tetrahydrofuran] + Cc1ccccc1Cl
x1 = 1
Settings	mass density [kg/m3]	speed of sound [m/s]
–	882.09	1270

C1CCOC1 [tetrahydrofuran] + Clc1ccccc1Cl
x1 = 1
Settings	mass density [kg/m3]	speed of sound [m/s]
–	882.09	1270

Clc1ccc(Cl)c(Cl)c1 [1,2,4-trichlorobenzene] + C1CCOC1
Settings	mass density [kg/m3]	speed of sound [m/s]
x2 = 0	1447.66	1272
x2 = 0.0358	1431.9	1303
x2 = 0.1451	1382.41	1326
x2 = 0.2456	1334.05	1346
x2 = 0.3483	1282.95	1355
x2 = 0.4617	1224.12	1352
x2 = 0.6012	1147.15	1339
x2 = 0.7076	1083.62	1327
x2 = 0.7639	1048.78	1320
x2 = 0.8162	1014.57	1313
x2 = 0.8743	975.21	1305
x2 = 0.9351	931.35	1300
x2 = 0.9642	909.82	1298

Clc1cccc(Cl)c1 [1,3-dichlorobenzene] + C1CCOC1
Settings	mass density [kg/m3]	speed of sound [m/s]
x2 = 0	1282.82	1257
x2 = 0.0332	1272.22	1259
x2 = 0.1432	1234.54	1272
x2 = 0.272	1189.62	1276
x2 = 0.3809	1150.84	1277
x2 = 0.5198	1099.15	1276
x2 = 0.6244	1057.78	1275
x2 = 0.696	1027.92	1274
x2 = 0.8044	980.28	1270
x2 = 0.845	961.47	1265
x2 = 0.8852	941.79	1265
x2 = 0.942	912.92	1266

C1CCOC1 [tetrahydrofuran] + Clc1ccc(Cl)c(Cl)c1
x1 = 1
Settings	mass density [kg/m3]	speed of sound [m/s]
–	882.09	1270

Cc1ccccc1Cl [2-chlorotoluene] + C1CCOC1
Settings	mass density [kg/m3]	speed of sound [m/s]
x2 = 0	1077.63	1295
x2 = 0.1234	1057.75	1324
x2 = 0.264	1034.49	1345
x2 = 0.3444	1020.53	1347
x2 = 0.4669	998.27	1348
x2 = 0.5809	976.32	1343
x2 = 0.7119	949.73	1331
x2 = 0.7706	937.14	1326
x2 = 0.8264	924.69	1318
x2 = 0.8858	910.9	1310
x2 = 0.9564	893.59	1298

Source: the NIST ThermoML archive (doi:10.1016/j.fluid.2011.07.018)
